This note sets out measurements from publication PMC9738591, “N-[1,3-Dialkyl(aryl)-2-oxoimidazolidin-4-ylidene]-aryl(alkyl)sulphonamides as Novel Selective Human Cannabinoid Type 2 Receptor (hCB2R) Ligands; Insights into the Mechanism of Receptor Activation/Deactivation” (Molecules, 2022).

In one data set the target is T1, human recombinant CB1R (Homo sapiens, UniProt P21554).
T1 construct: purchased Perkin-Elmer, Italy; host or cells: HEK-293 cells (membranes)
Description: Competition binding assay, displacement of [3H]-CP-55,940 from membranes of HEK-293 cells overexpressing CB1R. Particulars: for Ki: [3H]-CP-55,940 displacement, HEK-293 membranes, 90 min at 30 °C, Cheng-Prusoff, read-out: Ki hCB1R (µM ± S.E.); for inhibition at 10 µM: read-out: % Displacement/ Max. Conc. Tested, hCB1R. The protocol:
(§1) The binding affinities (Ki values) of the compounds for human recombinant hCB1R and hCB2R were determined as previously described, using SR144528 as a reference compound [30], and are reported in Table 1.
(§2) Compound affinity for CB1R and CB2R was measured as previously reported. […] Competition curves were performed by displacing [^3H]-CP-55 940 with increasing concentrations of compounds (0.1 nM–10 or 25 μM). […] All compounds were tested following the procedure described by the manufacturer (Perkin-Elmer, Italy). Displacement curves were generated by incubating drugs with [^3H]-CP-55 940 for 90 min at 30 °C. Ki values were calculated by applying the Cheng−Prusoff equation to the IC50 values for the displacement of the bound radioligand by increasing concentrations of the test compound. Data represent the mean values of three independent experiments performed in duplicate and are expressed as the average of Ki (µM) ± standard deviation. Data were analyzed using PRISM.9.3 software (GraphPad Software Inc, San Diego, CA, USA).
A general note: In a radioligand displacement assay an active substance lowers the binding of a labelled ligand.

In a further data set the target is human CB2R (Homo sapiens, UniProt P34972). Description: Competition binding assay, displacement of [3H]-CP-55,940 from membranes of HEK-293 cells overexpressing CB2R. Details: purchased Perkin-Elmer, Italy; host or cells: HEK-293 cells (membranes). Particulars: for Ki: [3H]-CP-55,940 displacement, HEK-293 membranes, 90 min at 30 °C, Cheng-Prusoff, read-out: Ki hCB2R (µM ± S.E.); for inhibition at 10 µM: max conc. tested 10 µM, read-out: % Displacement/ Max Conc. Tested, hCB2R (converted). The protocol: as §1, §2

Each structure is given as a SMILES string. Bounds are passed on as bounds.

human CB2R, sequence (P34972 whole entry): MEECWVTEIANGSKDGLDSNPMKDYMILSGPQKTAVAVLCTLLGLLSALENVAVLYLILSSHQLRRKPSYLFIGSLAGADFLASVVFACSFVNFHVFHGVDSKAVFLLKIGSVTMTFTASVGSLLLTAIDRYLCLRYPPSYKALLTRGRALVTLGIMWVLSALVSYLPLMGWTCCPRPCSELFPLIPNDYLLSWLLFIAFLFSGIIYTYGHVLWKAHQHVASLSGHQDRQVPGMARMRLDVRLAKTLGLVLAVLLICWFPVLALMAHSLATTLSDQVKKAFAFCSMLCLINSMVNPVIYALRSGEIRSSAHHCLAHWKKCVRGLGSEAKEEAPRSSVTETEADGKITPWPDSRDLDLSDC
T1 sequence (P21554 whole entry): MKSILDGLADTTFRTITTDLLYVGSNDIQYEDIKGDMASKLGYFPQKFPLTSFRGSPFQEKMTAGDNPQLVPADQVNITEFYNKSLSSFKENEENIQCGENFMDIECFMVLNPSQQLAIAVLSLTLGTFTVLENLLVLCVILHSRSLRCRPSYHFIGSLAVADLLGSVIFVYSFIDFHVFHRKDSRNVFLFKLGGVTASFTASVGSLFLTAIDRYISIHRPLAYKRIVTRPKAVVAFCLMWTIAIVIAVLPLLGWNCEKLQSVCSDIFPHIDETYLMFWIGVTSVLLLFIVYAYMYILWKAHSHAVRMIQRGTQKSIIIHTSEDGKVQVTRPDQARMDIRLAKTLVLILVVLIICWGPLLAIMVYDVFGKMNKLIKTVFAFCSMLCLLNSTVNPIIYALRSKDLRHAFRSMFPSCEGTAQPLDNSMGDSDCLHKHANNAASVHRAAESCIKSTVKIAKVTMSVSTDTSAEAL

The molecule `COCCN1C(=O)N(C(C)(C)C)CC1=NS(C)(=O)=O` [Compound 11a, N-[1-tert-Butyl-3-(2-methoxyethyl)-2-oxoimidazolidin-4-ylidene]methanesulfonamide] returned a melting point of 70.5 to 71 °C. In addition, on human recombinant CB1R, the inhibition constant (Ki) is more than 10 µM and the inhibition at 10 µM was determined as 65.3%. At human CB2R, the inhibitory constant (Ki) was more than 10 µM and the inhibition at 10 µM is 14.1%.

For `COCCN1C(=O)N(C(C)(C)C)CC1=NS(=O)(=O)c1ccc(Br)cc1` [Compound 11d, 4-Bromo-N-[1-tert-butyl-3-(2-methoxyethyl)-2-oxoimidazolidin-4-ylidene]benzenesulfonamide], the melting point was in the range of 103.5 to 104 °C. Further, on human recombinant CB1R, the inhibition constant (Ki) was more than 10 µM and the inhibition at 10 µM came out at 50.1%. Besides, on human CB2R, the inhibition constant (Ki) was more than 10 µM and the inhibition at 10 µM is 42.7%.

`Cc1cc(C)c(S(=O)(=O)N=C2CN(C(C)(C)C)C(=O)N2CC2CC2)c(C)c1` [Compound 10f, N-[1-tert-Butyl-3-cyclopropylmethyl-2-oxoimidazolidin-4-ylidene]-2,4,6-trimethylbenzenesulfonamide] displayed a melting point of 149 to 150 °C. On human recombinant CB1R, the Ki was more than 10 µM and the inhibition at 10 µM was found to be 15.4%. Also, at human CB2R, the inhibition constant (Ki) turned out to be 0.63 ± 0.14 µM and the inhibition at 10 µM was 81.3%.

Consider `COCCN1C(=O)N(C(C)(C)C)CC1=NS(=O)(=O)c1cccc2ccccc12` [Compound 11g, N-[1-tert-Butyl-3-(2-methoxyethyl)-2-oxoimidazolidin-4-ylidene]naphthalene-1-sulfonamide], for which the melting point is 110.5 to 111 °C. Besides, on human recombinant CB1R, the inhibition constant (Ki) was more than 10 µM and the inhibition at 10 µM stood at 13.5%. Moreover, at human CB2R, the inhibitory constant (Ki) was found to be 1.66 ± 0.2 µM and the inhibition at 10 µM was 78.7%.

Take `O=C1N(CC2CC2)/C(=N/S(=O)(=O)c2ccc3ccccc3c2)CN1C12CC3CC(CC(C3)C1)C2` [Compound 12h, N-[1-Adamant-1-yl-3-cyclopropylmethyl-2-oxoimidazolidin-4-ylidene]naphtalene-2-sulfonamide]: the melting point lay in the range of 167 to 167.5 °C. At human recombinant CB1R, the Ki was more than 10 µM and the inhibition at 10 µM amounted to 38.5%. Further, at human CB2R, the Ki is more than 10 µM and the inhibition at 10 µM was 17.7%.

`COCCN1C(=O)N(C(C)(C)C)CC1=NS(=O)(=O)c1ccccc1` [Compound 11b, N-[1-tert-Butyl-3-(2-methoxyethyl)-2-oxoimidazolidin-4-ylidene]benzenesulfonamide]: the melting point fell in the range of 104.5 to 105 °C. At human recombinant CB1R, the Ki was more than 10 µM and the inhibition at 10 µM turned out to be 52.6%. Besides, at human CB2R, the inhibitory constant (Ki) is more than 10 µM and the inhibition at 10 µM is 21.2%.

In turn, `O=C1N(CC2CC2)/C(=N/S(=O)(=O)c2cccc3ccccc23)CN1C12CC3CC(CC(C3)C1)C2` [Compound 12g, N-[1-Adamant-1-yl-3-cyclopropylmethyl-2-oxoimidazolidin-4-ylidene]naphtalene-1-sulfonamide] registered a melting point of 188.5 to 189 °C. Moreover, at human recombinant CB1R, the Ki was more than 10 µM and the inhibition at 10 µM was 12.8%. For the same molecule, at human CB2R, the inhibition constant (Ki) is more than 10 µM and the inhibition at 10 µM was 45.6%.

`COCCN1C(=O)N(C(C)(C)C)CC1=NS(=O)(=O)c1ccc2ccccc2c1` [Compound 11h, N-[1-tert-Butyl-3-(2-methoxyethyl)-2-oxoimidazolidin-4-ylidene]naphthalene-2-sulfonamide] registered a melting point of 129.5 to 130.5 °C. In addition, on human recombinant CB1R, the Ki is more than 10 µM and the inhibition at 10 µM amounted to 45.3%. At human CB2R, the Ki was more than 10 µM and the inhibition at 10 µM was 40.1%.

As to `COCCN1C(=O)N(C(C)(C)C)CC1=NS(=O)(=O)c1ccc(C)cc1` [Compound 11c, N-[1-tert-Butyl-3-(2-methoxyethyl)-2-oxoimidazolidin-4-ylidene]-4-methylbenzene-1-sulfonamide], the melting point was in the range of 106 to 107 °C. In addition, on human recombinant CB1R, the inhibitory constant (Ki) is more than 10 µM and the inhibition at 10 µM was determined as 57%. Further, at human CB2R, the Ki was more than 10 µM and the inhibition at 10 µM was 33.4%.

As usually defined, the melting point is the temperature of the solid-liquid transition. As a reminder, the Ki is a dissociation constant, usually derived from enzyme kinetics or from competition with a known ligand.
